Source: patent US11866416B2, “Streptococcus mutans glucosyl transferase inhibitors for dental caries therapy” (UAB Research Foundation, priority 2018, dated 2024)
Like-named read-outs stand apart in the source and are kept apart here. Marks after values point to notes of the source that are not given here.

Assays:
[1] = system: S. mutans biofilm; experiment: S. mutans biofilm formation and inhibition assay (96-well plates, crystal violet); type: cell-based, Streptococcus mutans; conditions: for IC50: Streptococcus mutans
[2] = target: GtfB catalytic domain (Streptococcus mutans serotype c (strain ATCC 700610 / UA159), UniProt P08987); experiment: OctetRed96 binding kinetics, GtfB; conditions: 1:1 binding model
GtfB catalytic domain, sequence (P08987 268-1074 limits assumed): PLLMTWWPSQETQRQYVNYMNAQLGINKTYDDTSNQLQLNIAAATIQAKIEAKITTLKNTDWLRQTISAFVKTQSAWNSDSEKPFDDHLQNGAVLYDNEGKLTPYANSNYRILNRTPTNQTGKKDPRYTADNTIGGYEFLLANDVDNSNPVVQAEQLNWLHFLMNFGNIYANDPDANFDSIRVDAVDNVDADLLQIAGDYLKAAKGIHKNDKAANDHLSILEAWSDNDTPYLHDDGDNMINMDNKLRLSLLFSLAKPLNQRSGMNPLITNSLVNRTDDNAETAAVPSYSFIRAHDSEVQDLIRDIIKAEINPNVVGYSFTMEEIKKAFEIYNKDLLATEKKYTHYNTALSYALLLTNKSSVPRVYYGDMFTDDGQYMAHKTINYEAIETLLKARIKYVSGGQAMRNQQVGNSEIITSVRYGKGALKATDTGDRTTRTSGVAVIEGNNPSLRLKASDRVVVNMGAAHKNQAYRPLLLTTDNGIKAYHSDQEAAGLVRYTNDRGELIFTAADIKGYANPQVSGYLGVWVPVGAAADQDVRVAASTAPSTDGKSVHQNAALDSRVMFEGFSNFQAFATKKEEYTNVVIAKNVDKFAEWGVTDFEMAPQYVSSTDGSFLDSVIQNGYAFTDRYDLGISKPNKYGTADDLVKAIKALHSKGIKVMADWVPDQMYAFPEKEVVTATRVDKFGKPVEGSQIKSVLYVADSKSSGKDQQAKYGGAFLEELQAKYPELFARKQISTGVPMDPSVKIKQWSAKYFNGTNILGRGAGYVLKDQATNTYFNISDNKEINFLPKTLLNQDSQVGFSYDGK
Source text: To determine if the inhibition is attributed by the binding of the lead compound to the enzymes, the OctetRed96 system was used to characterize protein-small molecule binding kinetics. The his-tagged catalytic domains of GtfB and GtC were immobilized separately onto an anti-penta-HIS (HIS1K) biosensor which consists of high affinity, high specificity penta-his antibody pre-immobilized on a fiber optic biosensor. This sensor was then exposed to varying concentrations of #G43.
Expression and purification of GtfB and GtfC catalytic domains. The DNA fragment coding for either GtfB catalytic (residues 268 aa-1074 aa) or GtfC-catalytic (residues 295 aa-1103 aa) was PCR amplified with primer sets of GtfB-BamH1-F and GtfB-Xho1-R, GtfC-BamH1-F and GtfC-Xhol1-R respectively using S. mutans genomic DNA as a template. Each amplified fragment was cloned into pET-sumo vector respectively and transformed in Escherichia coli BL21(DE3). The recombinant strain grown to OD600=0.8 in LB medium was induced with 0.1 mM IPTG at 18° C. overnight. Cell lysates prepared form the overnight grown E. coli cells were subjected to protein purification using HiTrap™ Column (Ni^2+ affinity) followed by gel filtration experiments as described (Zhu, F. et al. Structural and functional analysis of a new subfamily of glycosyltransferases required for glycosylation of serine-rich streptococcal adhesins. The Journal of biological chemistry 286, 27048-27057, doi:10.1074/jbc.M110.208629 (2011); Zhang, H. et al. The highly conserved domain of unknown function 1792 has a distinct glycosyltransferase fold. Nature communications 5, 4339, doi:10.1038/ncomms5339 (2014)).
Octet Red analysis. Octet full kinetic binding analysis was performed for binding of #G43 to GtfB and GtfC. The rate constant, KD, was determined using the Octet® Red96 system (ForteBio, Menlo Park, Calif.). Phosphate buffer with 3.5% (w/v) DMSO was used. The proteins were captured on dip-and-read Anti-Penta-HIS (HIS1K) Biosensor. These consist of high affinity, high specificity Penta-His antibody from Qiagen pre-immobilized on a fiber optic biosensor. The binding of #G43 at 3-fold serial dilutions in phosphate buffer from 200, 66.6, 22.2, 7.4, 2.5 to 0 μM was assessed. The ForteBio Octet analysis software (ForteBio, Menlo Park, Calif.) was used to generate the sensorgram and the accuracy of the analysis.
OctetRed analysis. […] GtfC and GtfB were purified. The Octet® Red96 system (ForteBio, Menlo Park, Calif.) was used to determine the rate constant, KD. […] Sensorgrams and the accuracy of the analysis was calculated using the ForteBio OctetRed analysis software (ForteBio, Menlo Park, Calif.).

[3] = system: S. mutans Gtfs; experiment: Gtf zymographic assay with SDS-PAGE; type: biochemical, Streptococcus mutans; conditions: for % Inhibition of GTFs at 10 μM: S. mutans GTF zymogram assay, NI = no inhibition up to 10 μM; for Gtf enzyme inhibitory activity, glucan bands in zymogram / production of Gtfs, protein level on SDS-PAGE: 50 μM added to cultures
Procedure: A well-established zymographic assay was used to determine enzymatic activity of Gtfs (Mattos-Graner et al. (2004) J. Clin. Microbiol. 42, […]). In brief, overnight S. mutans UA159 cultures were diluted 1:100 in fresh 5 mL THB with 50 μL of selective compounds at a series of concentrations. Treated bacteria were grown to OD470 of 1.0, and spun down by centrifugation at 4° C., and culture supernatants were collected and filtered through a 0.22-μm-pore-size filter membrane to remove residual bacterial cells and dialyzed at 4° C. against 0.02 M sodium phosphate buffer (pH 6.8), with 10 μM phenylmethylsulfonyl fluoride (PMSF), followed by a second dialysis against 0.2 mM sodium phosphate containing 10 μM PMSF. After dialysis, 4 mL of samples were concentrated to 40 μL by 100K Amicon Ultra-4 centrifugal filter (Merck Millipore Ltd.). For electrophoresis and zymographic analysis, 10 μL of each concentrated culture supernatant was applied to 8% SDS-PAGE in duplicate. One gel was used for protein staining with Coomassie blue dye, while the other one was subjected to zymographic assay as described (Mattos-Graner et al. (2004) J. Clin. Microbiol. 42, […]). The resultant white opaque glucan bands were visualized against a black background.
Inhibition of the activity of Gtfs determined by zymographic assays. Well established zymographic assay was used to determine enzymatic activity of Gtfs. In brief, overnight S. mutans UA159 cultures were diluted 1:100 in fresh 5 mL THB. Bacteria were grown to OD470 of 1.0, and spun down by centrifugation at 4° C. and culture supernatants were collected and filtered through a 0.22-μm-pore-size filter membrane to remove residual bacterial cells and dialyzed at 4° C. against 0.02 M sodium phosphate buffer (pH 6.8), with 10 μM phenylmethylsulfonyl fluoride (PMSF), followed by a second dialysis against 0.2 mM sodium phosphate containing 10 μM PMSF. After dialysis, 4 mL of samples were concentrated to 40 μL by 100K Amicon Ultra-4 centrifugal filter (Merk Millipore Ltd.). For electrophoresis and zymographic analysis, 10 μL of each concentrated culture supernatant was applied to 8% SDS-PAGE in duplicate. One gel was used for protein staining with Coomassie blue dye, while the other one was subjected to zymographic assay. For zymogram analysis, following electrophoretic separation, gels were washed twice for 15 min each with renaturing buffer containing 2.5% Triton X-100. Gels were then incubated for 18 h at 37° C. with 0.2 M sodium phosphate buffer (pH 6.5) containing 0.2% dextran T70, 5% sucrose, and varying concentrations of the small molecule inhibitors. The reactions were stopped by washing gels with distilled water at 4° C. for 10 min, and digital images of the resultant white opaque glucan bands were visualized against a black background and captured using a digital camera.
Inhibition of the activity of Gtfs determined by zymographic assays. A well-established zymographic assay was used to determine enzymatic activity of Gtfs (Mattos-Graner, R. O., Napimoga, M. H., Fukushima, K., Duncan, M. J., Smith, D. J., J Clin Microbiol, 2004, 42, 4586). In brief, overnight S. mutans UA159 cultures were diluted 1:100 in fresh 5 mL THB with 50 μL of selective compounds at a series of concentrations. Treated bacteria were grown to OD470 of 1.0, and spun down by centrifugation at 4° C., and culture supernatants were collected and filtered through a 0.22-μm-pore-size filter membrane to remove residual bacterial cells and dialyzed at 4° C. against 0.02 M sodium phosphate buffer (pH 6.8), with 10 μM phenylmethylsulfonyl fluoride (PMSF), followed by a second dialysis against 0.2 mM sodium phosphate containing 10 μM PMSF. After dialysis, 4 mL of samples were concentrated to 40 μL by 100K Amicon Ultra-4 centrifugal filter (Merk Millipore Ltd.). For electrophoresis and zymographic analysis, 10 μL of each concentrated culture supernatant was applied to 8% SDS-PAGE in duplicate. […]

[4] = system: S. mutans; experiment: microbe, parasite or virus in culture; type: cell-based, Streptococcus mutans; conditions: for MIC50 / IC50: Streptococcus mutans; for MIC50: read-out: Growth Inhibition MIC50; for IC50: Table 7, synthesized analogs of compound 9, read-out: Growth IC50; for SI (selectivity index): Table 7, growth IC50 value divided by biofilm IC50 value
Method in brief: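 Mid-exponential cultures (OD470 0.6) in THB were exposed to compound concentrations for 16 h, with growth read at OD470 and normalised to 1% DMSO control (100%). CFU/mL were also counted after 24 h at 37 °C and compared with the DMSO control.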

[5] = system: S. mutans colonization; experiment: Sucrose-dependent Drosophila colonization model; type: in vivo; conditions: chalcones; 100 μM or 50 μM
Procedure: Briefly, Gfp tagged S. mutans bacteria were infected into flies along with the treatment appropriate compound at 100 μM in a feeding-assay.
Mid-log phase THB cultures of Gfp-tagged (green fluorescent protein) S. mutans UA159 were spun down and resuspended in a solution containing 5% sucrose and 50 μM of the compound. 100 μL of resuspended cells were spotted onto a sterile filter that was placed on the surface of 5 mL of solidified 5% sucrose agar in a plastic vial. The vials were allowed to dry at room temperature for 30 minutes prior to addition of flies. Male Canton S flies (1-3 days old) were treated with antibiotics for 2 days and starved for 3 hours prior to the addition to vials supplied with S. mutans (10 flies per vial). The colonization of flies by Gfp-tagged strains were analyzed by Nikon elipse 90i microscope, equipped with an Epi-fluorescence and NIS elements AR imaging system.
The intensity of the fluorescence was measured in the guts of the flies fed with the Gfp tagged bacteria after 7 days of infection.
Cultures of Gfp-tagged (green fluorescent protein) S. mutans UA159 grown to middle log phase were spun down and re-suspended in a solution containing 5% sucrose and 50 μM of each compound. 100 μL of re-suspended cells were aliquoted onto a sterile filter that was placed on the surface of 5 mL of solidified 5% sucrose agar in a plastic vial. Upon the drying of the vials at room temperature for 30 min, the flies were introduced to the vessels. Male Canton S flies (1-3 days old) were treated with antibiotics for 2 days and starved for 3 h before the addition to vials supplied with S. mutans (10-14 flies per vial). Nikon elipse 90i microscope, equipped with an Epi-fluorescence and NIS elements AR imaging system was used to analyze the colonization of flies by Gfp-tagged strains.

[6] = Table 1, >500 = no inhibition up to 500 μM, read-out: Biofilm Inhibition IC50
[7] = Table 2, read-out: Biofilm Inhibition IC50
[8] = Table 5, >500 = no inhibition up to 500 μM, read-out: Biofilm Inhibition IC50
[9] = Table 2, >300 = no inhibition up to 300 μM
[10] = Table 7, synthesized analogs of compound 9, read-out: Biofilm IC50
[11] = read-out: S. mutans biofilm IC50

| Structure (SMILES) | IC50 [1, 6] [µM] | IC50 [1, 7] [µM] | IC50 [1, 8] [µM] | % Inhibition of GTFs at 10 μM [3] [%] | MIC50 [4, 9] [µM] | melting point [°C] | IC50 [1, 10] [µM] | Gtf enzyme inhibitory activity, glucan bands in zymogram [3] | IC50 [4] [µM] | SI (selectivity index) [4] | production of Gtfs, protein level on SDS-PAGE [3] | further results |
| --- | --- | --- | --- | --- | --- | --- | --- | --- | --- | --- | --- | --- |
| O=C(Nc1ccccc1)c1cc2cc([N+](=O)[O-])ccc2s1 [#G43-D] |  |  |  |  |  |  |  |  |  |  |  | inhibition of S. mutans biofilms, biofilm assay and fluorescence microscopy ([1]; concentrations up to 200 μM): did not inhibit; Kd [2]: 68 µM; glucan bands in zymographic assay ([3]; 50 μM, Gtfs from S. mutans UA159 supernatants): significantly reduced the ability to inhibit the glucan production |
| NC(=O)c1ccccc1NC(=O)c1cc2cc([N+](=O)[O-])ccc2s1 [Compound 3A] | 16.7 | 16.7 | 16.7 | 30.3 | > 300 |  |  |  |  |  |  |  |
| NC(=O)c1ccccc1NC(=O)c1cnc2ccccc2c1 [Compound 3I] | 15.3 | 15.3 | 15.3 | 36.6 | > 300 |  |  |  |  |  |  |  |
| NC(=O)c1ccccc1NC(=O)c1cc2cc(N)ccc2s1 [Compound 3M] | 10.2 |  | 10.2 | 42.2 |  |  |  |  |  |  |  | Growth Inhibition MIC50 [4, 9]: >300^b μM |
| O=C(Nc1ccccc1C(=O)O)c1cc2cc([N+](=O)[O-])ccc2s1 [Compound 3N] | 89.3 | 89.3 | 89.3 | 30.1 | > 300 |  |  |  |  |  |  |  |
| COC(=O)c1ccc(NC(=O)c2cc3cc([N+](=O)[O-])ccc3s2)cc1 [Compound 3O] | 9.6 | 9.6 | 9.6 | 54.8 | > 300 |  |  |  |  |  |  |  |
| O=C(/C=C/c1ccc(O)cc1O)c1cccc(O)c1 [Compound 9a, (E)-3-(2,4-Dihydroxyphenyl)-1-(3-hydroxyphenyl)-2-propen-1-one] |  |  |  |  |  | 73 to 75 | 68 ± 3 | did not exhibit a drastic effect | 639 ± 25 | 9.39 |  | fluorescence of Gfp tagged S. mutans in fly guts after 7 days [5]: marked reduction in fluorescence; IC50 [1, 11]: 68 µM; selectivity (index / fold) for biofilm over growth [4]: about 10 |
| O=C(/C=C\c1ccc(O)cc1O)c1cccc(O)c1 [Compound 9b, (Z)-3-(2,4-Dihydroxyphenyl)-1-(3-hydroxyphenyl)-2-propen-1-one] |  |  |  |  |  | 164 to 167 | 44 ± 5 | exhibit the best inhibitory effects | 468 ± 16 | 10.6 | showed an inhibitory effect on the production of Gtfs | fluorescence of Gfp tagged S. mutans in fly guts after 7 days [5]: marked reduction in fluorescence; IC50 [1, 11]: 44 µM; selectivity (index / fold) for biofilm over growth [4]: about 10 |
| O=C(/C=C/c1ccc(O)cc1O)c1ccc(O)cc1 [Compound 18b, (E)-3-(2,4-Dihydroxyphenyl)-1-(4-hydroxyphenyl)-2-propen-1-one] |  |  |  |  |  | 185 to 188 | 162 ± 21 | did not exhibit a drastic effect | 1060 ± 118 | 6.6 | showed an inhibitory effect on the production of Gtfs |  |
| O=C(/C=C/c1cc(O)c(O)cc1O)c1ccccc1O [Compound 18c, (E/Z)-1-(2-hydroxyphenyl)-3-(2,4,5-trihydroxyphenyl)prop-2-en-1-one] |  |  |  |  |  |  | 224 ± 23 |  | 323 ± 36 | 1.5 | largest inhibition | selectivity (index / fold) for biofilm over growth [4]: 1.5 |
| O=C(/C=C/c1cc(O)c(O)cc1O)c1ccc(O)cc1 [Compound 18d, (E)-1-(4-hydroxyphenyl)-3-(2,4,5-trihydroxyphenyl)prop-2-en-1-one] |  |  |  |  |  |  | 76 | some weak inhibition of the GtfC band | 376 ± 6 | 4.9 |  |  |
| O=C(/C=C\c1ccc(O)cc1O)c1ccc(O)cc1 [Compound 21b, (Z)-3-(2,4-Dihydroxyphenyl)-1-(4-hydroxyphenyl)-2-propen-1-one] |  |  |  |  |  | 185 to 187 | 77 ± 8 | exhibit the best inhibitory effects | 782 ± 96 | 10.1 | showed an inhibitory effect on the production of Gtfs |  |
| C(=C\c1ccccc1)/c1ccccc1 [E-stilbene, reference compound] |  |  |  |  |  |  |  |  |  |  |  | glucan production in zymogram assay ([3]; stilbenes, versus DMSO control): no glucan inhibition |
